Assay results as given in US12276039B2, “Crystal of europium compound and method for producing crystal of europium compound” (OHARA INC., priority 2020, dated 2025).

System: Hela cancer cells
Assay: Toxicity evaluation: cell density of Hela cancer cells cultured with FA (folic acid)-modified particles
Assay type: cell-based
Conditions: FA-modified particles on Hela cells, FIG. 9
Method: Particles of Examples 1 to 3 or Comparative Examples 1 to 2 were subjected to toxicity evaluation by cancer cell imaging and fluorescence intensity measurement by the following methods.
To 250 mg of the particles of Examples 1 to 3 or Comparative Examples 1 to 2, 12 ml of an HCl aqueous solution (pH=2) was added, and ultrasonic treatment was carried out. Next, a solution containing 0.78 ml (3.3 mmol) of 3-aminopropyltriethoxysilane (APTES) in 5 mL of ethanol was prepared and added to the ultrasonic-treated solution to obtain a mixed solution. The mixed solution was stirred for 20 hours at 40° C. (pH<6.5). […]
After the above cells were cultured, a polystyrene dish (TCPS) including cells was washed twice with 1 ml of phosphate buffered saline (PBS), then FA (folic acid)-modified particles which had not taken up by the cells were removed, 0.1 ml of 0.05% Trypsin-EDTA was placed in a TCPS including cells, followed by allowing to stand still in a CO2 incubator for 12 minutes, and cells were peeled off from TCPS. […] Thereafter, the supernatant was discarded, 20 ml of medium was added to the tube, pipetting was carried out about 20 times, 1 ml was aliquoted into 15 ml-tubes, the cell suspension was placed into a disposable hemocytometer using a micropipette outside a clean bench, the cell number was confirmed under a microscope, and the average value (cell/cm^2) was calculated. […]

SMILES: O.O.O.O.O.O.[Cl][Eu]([Cl])[Cl] [Comparative Example 2, Europium chloride hexahydrate]
- cell proliferation behavior (average cell density) (3, 12, 24, 36 and 48 hours after spraying): a normal cell proliferation behavior was not observed
- cytotoxicity: cytotoxicity due to the elution
